Experimental data reported in PubChem BioAssay (NCI).
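Interpolation was linear, between the two tested concentrations surrounding the appropriate level; five concentrations were tested over 48 hours in 96-well plates. TGI denotes the concentration required for complete inhibition of growth.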

Key:
Test in all cases: inhibition of tumour cell growth, NCI panel, 48 h
MDA-MB-231 breast = test system: MDA-MB-231 breast
SF-268 CNS = test system: SF-268 CNS
SR leukemia = test system: SR leukemia
HOP-92 NSCLC = test system: HOP-92 NSCLC
SK-MEL-5 melanoma = test system: SK-MEL-5 melanoma
SK-MEL-2 melanoma = test system: SK-MEL-2 melanoma
NCI-H226 lung = test system: NCI-H226 lung
SNB-19 CNS = test system: SNB-19 CNS
SF-539 CNS = test system: SF-539 CNS
MDA-MB-435 = test system: MDA-MB-435
BT-549 breast = test system: BT-549 breast
UO-31 renal = test system: UO-31 renal
HL-60(TB) leukemia = test system: HL-60(TB) leukemia
A549 NSCLC = test system: A549 NSCLC
CAKI-1 renal = test system: CAKI-1 renal
OVCAR-5 ovarian = test system: OVCAR-5 ovarian
OVCAR-4 ovarian = test system: OVCAR-4 ovarian
MCF7 breast = test system: MCF7 breast
RXF 393 renal = test system: RXF 393 renal
DU-145 prostate = test system: DU-145 prostate
OVCAR-3 ovarian = test system: OVCAR-3 ovarian
A498 renal = test system: A498 renal
HT29 colon = test system: HT29 colon
EKVX NSCLC = test system: EKVX NSCLC
SK-OV-3 ovarian = test system: SK-OV-3 ovarian
NCI/ADR-RES ovarian = test system: NCI/ADR-RES ovarian
SN12C renal = test system: SN12C renal
SF-295 CNS = test system: SF-295 CNS
LOX IMVI melanoma = test system: LOX IMVI melanoma
KM12 colon = test system: KM12 colon
MDA-N = test system: MDA-N
PC-3 prostate = test system: PC-3 prostate
HCT-116 colon = test system: HCT-116 colon
SK-MEL-28 melanoma = test system: SK-MEL-28 melanoma
OVCAR-8 ovarian = test system: OVCAR-8 ovarian
U251 CNS = test system: U251 CNS
HS 578T breast = test system: HS 578T breast
HOP-62 NSCLC = test system: HOP-62 NSCLC
TK-10 renal = test system: TK-10 renal
UACC-62 melanoma = test system: UACC-62 melanoma
IGROV1 ovarian = test system: IGROV1 ovarian
COLO 205 colon = test system: COLO 205 colon
786-0 renal = test system: 786-0 renal
SNB-75 CNS = test system: SNB-75 CNS
ACHN renal = test system: ACHN renal
SW-620 colon = test system: SW-620 colon
MOLT-4 leukemia = test system: MOLT-4 leukemia
T-47D breast = test system: T-47D breast
CCRF-CEM leukemia = test system: CCRF-CEM leukemia
NCI-H23 lung = test system: NCI-H23 lung
HCC-2998 colon = test system: HCC-2998 colon
RPMI-8226 leukemia = test system: RPMI-8226 leukemia
NCI-H460 lung = test system: NCI-H460 lung
MALME-3M melanoma = test system: MALME-3M melanoma
UACC-257 melanoma = test system: UACC-257 melanoma
M14 melanoma = test system: M14 melanoma
K-562 leukemia = test system: K-562 leukemia
NCI-H522 lung = test system: NCI-H522 lung
HCT-15 colon = test system: HCT-15 colon
LXFL 529 NSCLC = test system: LXFL 529 NSCLC
M19-MEL melanoma = test system: M19-MEL melanoma
DLD-1 colon = test system: DLD-1 colon
KM20L2 colon = test system: KM20L2 colon
DMS 273 small cell lung = test system: DMS 273 small cell lung

Measured: TGI

O=C(CCCC1Cc2ccccc2C1=O)c1ccccc1 (stereo not given)
77.4 µM: HL-60(TB) leukemia
56.3 µM: MCF7 breast
84.6 µM: NCI/ADR-RES ovarian
not listed: LXFL 529 NSCLC | M19-MEL melanoma | DLD-1 colon | KM20L2 colon | DMS 273 small cell lung
> 100 µM: all other assays above

Cc1nc2c(=O)[nH]c(=O)n(C)c2[nH]c1=O
not listed: MDA-MB-231 breast | SF-539 CNS | MDA-MB-435 | BT-549 breast | MCF7 breast | DU-145 prostate | NCI/ADR-RES ovarian | SF-295 CNS | MDA-N | PC-3 prostate | HS 578T breast | T-47D breast | CCRF-CEM leukemia
> 100 µM: all other assays above
